Results taken from ChEMBL document CHEMBL1949512, “RO4383596, an orally active KDR, FGFR, and PDGFR inhibitor: synthesis and biological evaluation” (Bioorg Med Chem, 2005).

Target: T1, Serine/threonine-protein kinase Sgk1 (Homo sapiens, UniProt O00141)
T1 sequence (O00141 whole entry): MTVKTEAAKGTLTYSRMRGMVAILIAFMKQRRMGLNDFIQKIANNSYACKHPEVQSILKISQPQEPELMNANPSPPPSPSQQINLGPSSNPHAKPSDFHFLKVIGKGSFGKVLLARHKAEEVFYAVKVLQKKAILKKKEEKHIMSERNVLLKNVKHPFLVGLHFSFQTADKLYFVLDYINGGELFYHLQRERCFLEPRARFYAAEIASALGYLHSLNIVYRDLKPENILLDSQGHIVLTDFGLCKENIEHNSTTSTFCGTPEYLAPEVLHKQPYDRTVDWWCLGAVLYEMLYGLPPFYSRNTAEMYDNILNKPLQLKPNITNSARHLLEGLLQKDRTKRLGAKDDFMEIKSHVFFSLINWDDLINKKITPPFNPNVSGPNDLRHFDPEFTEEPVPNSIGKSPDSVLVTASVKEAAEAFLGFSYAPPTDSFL
Experiment: Inhibition of SGK

IC50: > 125 µM
Structure (SMILES): COc1ccc(N2Cc3cnc(Nc4ccccc4)nc3N([C@@H]3CC[C@@H](O)C3)C2=O)cc1 (racemic)
